Laboratory results from PubChem BioAssay (NCI).
Where “and” joins values, the source holds several entries; their conditions need not be identical. Equal values may be shown once.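 Compound exposure: 48 hours, 5 concentrations, 96-well plates. Abbreviation: GI50, concentration required for 50% inhibition of growth. TGI: concentration producing complete growth inhibition.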

Legend:
Assay in all cases: NCI tumour cell line growth inhibition, 48 h
SNB-75 CNS = system: SNB-75 CNS
OVCAR-4 ovarian = system: OVCAR-4 ovarian
HS 578T breast = system: HS 578T breast
DU-145 prostate = system: DU-145 prostate
COLO 205 colon = system: COLO 205 colon
UO-31 renal = system: UO-31 renal
SW-620 colon = system: SW-620 colon
HT29 colon = system: HT29 colon
SR leukemia = system: SR leukemia
NCI-H23 lung = system: NCI-H23 lung

SMILES	GI50 (SNB-75 CNS)	TGI (SNB-75 CNS)	GI50 (OVCAR-4 ovarian)	TGI (OVCAR-4 ovarian)	GI50 (HS 578T breast)	TGI (HS 578T breast)	GI50 (DU-145 prostate)	TGI (DU-145 prostate)	GI50 (COLO 205 colon)	TGI (COLO 205 colon)	GI50 (UO-31 renal)	TGI (UO-31 renal)	GI50 (SW-620 colon)	TGI (SW-620 colon)	GI50 (HT29 colon)	TGI (HT29 colon)	GI50 (SR leukemia)	TGI (SR leukemia)	GI50 (NCI-H23 lung)	TGI (NCI-H23 lung)
COC(=O)[C@H](Cc1ccccc1)NC(=O)c1csc([C@@H](C[C@H](C(C)C)N(C)C(=O)[C@@H](NC(=O)[C@H]2CCCN2C)C2CC2)OC(C)=O)n1	0.131 µM	> 33.3 µM	3.98 µM	> 33.3 µM	0.122 µM	> 33.3 µM	0.346 µM	> 33.3 µM	0.456 µM	4.29 µM	2.17 µM	> 27.9 µM	0.235 µM	> 33.3 µM	0.14 µM	> 33.3 µM	0.0103 µM	> 33.3 µM	1.46 µM	> 33.3 µM
CN(C)CCCN1c2ccccc2Sc2ccc(Cl)cc21	4.63 µM and 6.09 µM	19.7 µM and 23 µM	7.84 µM and 9.23 µM	20.7 µM and 22.5 µM	4.32 µM and 3.77 µM	24.4 µM and 21 µM	11.7 µM and 11.2 µM	24.1 µM and 23.4 µM	1.89 µM and 2.85 µM	3.77 µM and 7.68 µM	2.89 µM and 3.46 µM	13.7 µM and 17.2 µM	3.57 µM and 3.69 µM	13.7 µM and 14.6 µM	3.26 µM and 3.96 µM	10.8 µM and 13.6 µM	3.01 µM and 3.94 µM	11 µM and 20.2 µM	8.92 µM and 13.3 µM	22.2 µM and 27.6 µM
CC[C@H](C)[C@H](NC(=O)[C@H]1CCCCN1C)C(=O)N(C)[C@H](C[C@@H](OC(C)=O)c1nc(C(=O)N[C@@H](Cc2ccccc2)C[C@H](C)C(=O)OC)cs1)C(C)C	0.000335 µM and 0.0025 µM	–	0.00479 µM and 0.0025 µM	> 25 µM	0.000504 µM and 0.0025 µM	6.9 µM	0.000208 µM	–	0.000208 µM and < 0.0025 µM	0.00119 µM and < 0.0025 µM	0.0032 µM and 0.0025 µM	> 25 µM	–	> 25 µM	0.000251 µM and < 0.0025 µM	0.0137 µM and < 0.0025 µM	–	9.59 µM	0.00071 µM and 0.0025 µM	> 25 µM
CCc1cccc(CC)c1/C=C/c1cncc(C(=O)NC)c1	7.08 µM	> 25 µM	> 21.4 µM	> 25 µM	7.65 µM	> 25 µM	16.5 µM	> 25 µM	13.8 µM	> 25 µM	8.8 µM	> 25 µM	10.5 µM	> 25 µM	8.79 µM	> 25 µM	7.24 µM	> 25 µM	15.2 µM	> 25 µM
COc1ccc(C(=O)C[C@]2(O)C(=O)Nc3c(Cl)ccc(Cl)c32)cc1	0.199 µM	0.972 µM	12 µM	> 100 µM	0.555 µM	> 100 µM	1.87 µM	> 55.7 µM	0.488 µM	9.78 µM	1.47 µM	> 100 µM	0.379 µM	> 100 µM	0.376 µM	–	0.243 µM	> 100 µM	1.51 µM	> 100 µM
CC(C)(CO)N=Cc1ccccc1[O-].CC(C)(CO)N=Cc1ccccc1[O-].[Co+2]	> 86.4 µM	> 100 µM	71.9 µM	> 100 µM	> 100 µM	> 100 µM	42.1 µM	> 100 µM	55.9 µM	> 100 µM	44.9 µM	> 100 µM	72.4 µM	> 100 µM	100 µM	> 100 µM	14.4 µM	> 90.4 µM	72.7 µM	> 100 µM
C1=C2CNCC3=Cc4ccc5ccccc5c4OC23Oc2c1ccc1ccccc21	2.32 µM	11.5 µM	4.71 µM	19.8 µM	2.24 µM	10.4 µM	3.29 µM	11.1 µM	2.09 µM	4.23 µM	3.54 µM	21.5 µM	2.52 µM	10.5 µM	–	–	2.2 µM	5.4 µM	6.94 µM	32 µM
O=C(Nc1ccc(Cl)cc1)Nc1ccccc1CNc1nc(Nc2ccc(OCCN3CCCC3)cc2)ncc1Cl	2.1 µM	9.28 µM	0.862 µM	1.66 µM	7.02 µM	19 µM	1.22 µM	2.79 µM	–	–	0.782 µM	1.59 µM	1.12 µM	2.67 µM	1.19 µM	3.28 µM	1.7 µM	50 µM	2.53 µM	10 µM
CCOCNc1ccc(N2C(=O)/C(=C/c3ccc(N(CC)CC)cc3)N=C2c2ccccc2)cc1	16.2 µM	81.2 µM	> 100 µM	> 100 µM	17 µM	> 100 µM	> 100 µM	> 100 µM	86.6 µM	> 100 µM	–	–	41.5 µM	> 100 µM	6.88 µM	> 100 µM	6.5 µM	> 100 µM	27.3 µM	> 100 µM
Cc1cc(=O)oc2cc(OCCn3c(C)nn(-c4ccc(Cl)cc4)c3=O)ccc12	2.22 µM	15.1 µM	–	–	2.82 µM	> 100 µM	3.9 µM	> 100 µM	2.39 µM	7.34 µM	12.7 µM	> 100 µM	2.2 µM	> 100 µM	3.82 µM	> 100 µM	0.497 µM	6.67 µM	2.83 µM	> 100 µM
